Test results taken from PubChem BioAssay (NCI).
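At the GI50, growth is halved. TGI marks complete inhibition of growth.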

How the values were obtained:
Assay in all cases: NCI-60 cell line screen, 384-well format
786-0 renal = tested on: 786-0 renal
A498 renal = tested on: A498 renal
A549 NSCLC = tested on: A549 NSCLC
ACHN renal = tested on: ACHN renal
BT-549 breast = tested on: BT-549 breast
CAKI-1 renal = tested on: CAKI-1 renal
CCRF-CEM leukemia = tested on: CCRF-CEM leukemia
COLO 205 colon = tested on: COLO 205 colon
DU-145 prostate = tested on: DU-145 prostate
EKVX NSCLC = tested on: EKVX NSCLC
HCC-2998 colon = tested on: HCC-2998 colon
HCT-15 colon = tested on: HCT-15 colon
HL-60(TB) leukemia = tested on: HL-60(TB) leukemia
HOP-62 NSCLC = tested on: HOP-62 NSCLC
HOP-92 NSCLC = tested on: HOP-92 NSCLC
HS 578T breast = tested on: HS 578T breast
HT29 colon = tested on: HT29 colon
IGROV1 ovarian = tested on: IGROV1 ovarian
K-562 leukemia = tested on: K-562 leukemia
KM12 colon = tested on: KM12 colon
LOX IMVI melanoma = tested on: LOX IMVI melanoma
M14 melanoma = tested on: M14 melanoma
MALME-3M melanoma = tested on: MALME-3M melanoma
MCF7 breast = tested on: MCF7 breast
MDA-MB-231 breast = tested on: MDA-MB-231 breast
MDA-MB-435 melanoma = tested on: MDA-MB-435 melanoma
MDA-MB-468 breast = tested on: MDA-MB-468 breast
MOLT-4 leukemia = tested on: MOLT-4 leukemia
NCI-H226 lung = tested on: NCI-H226 lung
NCI-H23 lung = tested on: NCI-H23 lung
NCI-H322M lung = tested on: NCI-H322M lung
NCI-H460 NSCLC = tested on: NCI-H460 NSCLC
NCI-H522 lung = tested on: NCI-H522 lung
NCI/ADR-RES ovarian = tested on: NCI/ADR-RES ovarian
OVCAR-3 ovarian = tested on: OVCAR-3 ovarian
OVCAR-4 ovarian = tested on: OVCAR-4 ovarian
OVCAR-5 ovarian = tested on: OVCAR-5 ovarian
OVCAR-8 ovarian = tested on: OVCAR-8 ovarian
PC-3 prostate = tested on: PC-3 prostate
RPMI-8226 leukemia = tested on: RPMI-8226 leukemia
RXF 393 renal = tested on: RXF 393 renal
SF-268 CNS = tested on: SF-268 CNS
SF-295 CNS = tested on: SF-295 CNS
SF-539 CNS = tested on: SF-539 CNS
SK-MEL-28 melanoma = tested on: SK-MEL-28 melanoma
SK-MEL-5 melanoma = tested on: SK-MEL-5 melanoma
SK-OV-3 ovarian = tested on: SK-OV-3 ovarian
SN12C renal = tested on: SN12C renal
SNB-19 CNS = tested on: SNB-19 CNS
SNB-75 CNS = tested on: SNB-75 CNS
SR leukemia = tested on: SR leukemia
SW-620 colon = tested on: SW-620 colon
T-47D breast = tested on: T-47D breast
TK-10 renal = tested on: TK-10 renal
U251 glioblastoma = tested on: U251 glioblastoma
UACC-257 melanoma = tested on: UACC-257 melanoma
UACC-62 melanoma = tested on: UACC-62 melanoma
UO-31 renal = tested on: UO-31 renal

Compound `CCN1CCN(Cc2ccc(-c3cc4c(N[C@H](C)c5ccccc5)ncnc4[nH]3)cc2)CC1` has a GI50 ([…]-0 renal) of 1070 nM, a TGI (786-0 renal) of 2280 nM and a GI50 (A498 renal) of 1220 nM. It also gave a TGI (A498 renal) of 2610 nM, a GI50 (A549 NSCLC) of 1060 nM and a TGI (A549 NSCLC) of 3520 nM. The GI50 (ACHN renal) was 89 nM, the TGI (ACHN renal) was 1520 nM and the GI50 (BT-549 breast) was 1590 nM. It also gave a TGI (BT-549 breast) of 3140 nM, a GI50 (CAKI-1 renal) of 299 nM and a TGI (CAKI-1 renal) of 1880 nM. The GI50 (CCRF-CEM leukemia) was 1830 nM, the TGI (CCRF-CEM leukemia) was 3230 nM and the GI50 (COLO 205 colon) was 1780 nM. The TGI (COLO 205 colon) was 3290 nM, the GI50 (DU-145 prostate) was 1540 nM and the TGI (DU-145 prostate) was 10800 nM. For the same compound, the GI50 (EKVX NSCLC) was 91.2 nM, the TGI (EKVX NSCLC) was 2340 nM and the GI50 (HCC-2998 colon) was 1560 nM. The TGI (HCC-2998 colon) was 3040 nM, the GI50 (HCT-15 colon) was 1360 nM and the TGI (HCT-15 colon) was 2750 nM. For the same compound, the GI50 (HL-60(TB) leukemia) was 1660 nM, the TGI (HL-60(TB) leukemia) was 3020 nM and the GI50 (HOP-62 NSCLC) was 1660 nM. The TGI (HOP-62 NSCLC) was 3310 nM, the GI50 (HOP-92 NSCLC) was 1260 nM and the TGI (HOP-92 NSCLC) was 2640 nM. It also gave a GI50 (HS 578T breast) of 1480 nM, a TGI (HS 578T breast) of 2830 nM and a GI50 (HT29 colon) of 1450 nM. It also gave a TGI (HT29 colon) of 2930 nM, a GI50 (IGROV1 ovarian) of 120 nM and a TGI (IGROV1 ovarian) of 695 nM. The GI50 (K-562 leukemia) was 217 nM, the TGI (K-562 leukemia) was 550 nM and the GI50 (KM12 colon) was 1920 nM. The TGI (KM12 colon) was 4070 nM, the GI50 (LOX IMVI melanoma) was 1570 nM and the TGI (LOX IMVI melanoma) was 2910 nM. It also gave a GI50 (M14 melanoma) of 1590 nM, a TGI (M14 melanoma) of 2950 nM and a GI50 (MALME-3M melanoma) of 1380 nM. It also gave a TGI (MALME-3M melanoma) of 2680 nM, a GI50 (MCF7 breast) of 1490 nM and a TGI (MCF7 breast) of 2970 nM. For the same compound, the GI50 (MDA-MB-231 breast) was 1560 nM, the TGI (MDA-MB-231 breast) was 3640 nM and the GI50 (MDA-MB-435 melanoma) was 1620 nM. The TGI (MDA-MB-435 melanoma) was 3040 nM, the GI50 (MDA-MB-468 breast) was 22.7 nM and the TGI (MDA-MB-468 breast) was 60 nM. The GI50 (MOLT-4 leukemia) was 1340 nM, the TGI (MOLT-4 leukemia) was 2620 nM and the GI50 (NCI-H226 lung) was 1100 nM. It also gave a TGI (NCI-H226 lung) of 4440 nM, a GI50 (NCI-H23 lung) of 1520 nM and a TGI (NCI-H23 lung) of 3940 nM. For the same compound, the GI50 (NCI-H322M lung) was 51.7 nM, the TGI (NCI-H322M lung) was 1130 nM and the GI50 (NCI-H460 NSCLC) was 1750 nM. The TGI (NCI-H460 NSCLC) was 3570 nM, the GI50 (NCI-H522 lung) was 111 nM and the TGI (NCI-H522 lung) was 1320 nM. For the same compound, the GI50 (NCI/ADR-RES ovarian) was 2020 nM, the TGI (NCI/ADR-RES ovarian) was 6110 nM and the GI50 (OVCAR-3 ovarian) was 1320 nM. For the same compound, the TGI (OVCAR-3 ovarian) was 5360 nM, the GI50 (OVCAR-4 ovarian) was 1560 nM and the TGI (OVCAR-4 ovarian) was 5250 nM. For the same compound, the GI50 (OVCAR-5 ovarian) was 440 nM, the TGI (OVCAR-5 ovarian) was 2790 nM and the GI50 (OVCAR-8 ovarian) was 1570 nM. The TGI (OVCAR-8 ovarian) was 3740 nM, the GI50 (PC-3 prostate) was 1850 nM and the TGI (PC-3 prostate) was 8640 nM. The GI50 (RPMI-8226 leukemia) was 1280 nM, the TGI (RPMI-8226 leukemia) was 2550 nM and the GI50 (RXF 393 renal) was 1420 nM. The TGI (RXF 393 renal) was 2810 nM, the GI50 (SF-268 CNS) was 1490 nM and the TGI (SF-268 CNS) was 3350 nM. For the same compound, the GI50 (SF-295 CNS) was 1710 nM, the TGI (SF-295 CNS) was 3230 nM and the GI50 (SF-539 CNS) was 1560 nM. The TGI (SF-539 CNS) was 2910 nM, the GI50 (SK-MEL-28 melanoma) was 1590 nM and the TGI (SK-MEL-28 melanoma) was 2940 nM. For the same compound, the GI50 (SK-MEL-5 melanoma) was 1530 nM, the TGI (SK-MEL-5 melanoma) was 2870 nM and the GI50 (SK-OV-3 ovarian) was 349 nM. It also gave a TGI (SK-OV-3 ovarian) of 1710 nM, a GI50 (SN12C renal) of 203 nM and a TGI (SN12C renal) of 2070 nM. It also gave a GI50 (SNB-19 CNS) of 2460 nM, a TGI (SNB-19 CNS) of 11600 nM and a GI50 (SNB-75 CNS) of 2040 nM. The TGI (SNB-75 CNS) was 5980 nM, the GI50 (SR leukemia) was 1760 nM and the TGI (SR leukemia) was 3150 nM. The GI50 (SW-620 colon) was 1770 nM, the TGI (SW-620 colon) was 3510 nM and the GI50 (T-47D breast) was 439 nM. It also gave a TGI (T-47D breast) of 2590 nM, a GI50 (TK-10 renal) of 389 nM and a TGI (TK-10 renal) of 2040 nM. It also gave a GI50 (U251 glioblastoma) of 1800 nM, a TGI (U251 glioblastoma) of 3620 nM and a GI50 (UACC-257 melanoma) of 1360 nM. It also gave a TGI (UACC-257 melanoma) of 2640 nM, a GI50 (UACC-62 melanoma) of 1620 nM and a TGI (UACC-62 melanoma) of 3000 nM. For the same compound, the GI50 (UO-31 renal) was 1330 nM and the TGI (UO-31 renal) was 11900 nM.

Compound `CC[C@]1(O)C[C@H]2CN(CCc3c([nH]c4ccccc34)[C@@](C(=O)OC)(c3cc4c(cc3OC)N(C=O)[C@H]3[C@@](O)(C(=O)OC)[C@H](OC(C)=O)[C@]5(CC)C=CCN6CC[C@]43[C@@H]65)C2)C1` has a GI50 ([…]-0 renal) of 14.3 nM, a TGI (786-0 renal) of 48100 nM and a GI50 (A498 renal) of less than 16.3 nM. For the same compound, the TGI (A498 renal) was 844 nM, the GI50 (A549 NSCLC) was 34.6 nM and the GI50 (ACHN renal) was 262 nM. The TGI (ACHN renal) was greater than 95900 nM, the TGI (BT-549 breast) was 32.9 nM and the GI50 (CAKI-1 renal) was 30.4 nM. The TGI (CAKI-1 renal) was 18100 nM, the GI50 (EKVX NSCLC) was 34.2 nM and the TGI (EKVX NSCLC) was greater than 91800 nM. For the same compound, the GI50 (HCT-15 colon) was 72 nM, the TGI (HCT-15 colon) was 1310 nM and the TGI (HOP-62 NSCLC) was 2330 nM. The GI50 (HOP-92 NSCLC) was less than 23.2 nM, the TGI (HOP-92 NSCLC) was 41100 nM and the TGI (HT29 colon) was 36200 nM. The GI50 (IGROV1 ovarian) was less than 27.3 nM, the TGI (IGROV1 ovarian) was greater than 35600 nM and the TGI (K-562 leukemia) was less than 10.8 nM. For the same compound, the TGI (M14 melanoma) was 17800 nM, the TGI (MALME-3M melanoma) was 29300 nM and the TGI (MCF7 breast) was 4320 nM. For the same compound, the TGI (MDA-MB-231 breast) was greater than 93800 nM, the GI50 (NCI-H226 lung) was 39.9 nM and the TGI (NCI-H226 lung) was greater than 84900 nM. It also gave a TGI (NCI-H23 lung) of 49.9 nM, a GI50 (NCI-H322M lung) of 34 nM and a TGI (NCI-H460 NSCLC) of 13.1 nM. For the same compound, the GI50 (NCI/ADR-RES ovarian) was 1870 nM, the TGI (NCI/ADR-RES ovarian) was 4570 nM and the TGI (OVCAR-3 ovarian) was less than 11 nM. For the same compound, the GI50 (OVCAR-4 ovarian) was 1400 nM, the GI50 (OVCAR-5 ovarian) was 44.2 nM and the GI50 (OVCAR-8 ovarian) was less than 12.1 nM. It also gave a TGI (OVCAR-8 ovarian) of 47 nM, a GI50 (PC-3 prostate) of less than 10.5 nM and a TGI (PC-3 prostate) greater than 61200 nM. For the same compound, the TGI (RXF 393 renal) was 78100 nM, the TGI (SF-268 CNS) was 20300 nM and the GI50 (SF-295 CNS) was less than 14.2 nM. For the same compound, the TGI (SF-295 CNS) was less than 23.1 nM, the TGI (SF-539 CNS) was less than 12.2 nM and the TGI (SK-MEL-28 melanoma) was 56200 nM. The GI50 (TK-10 renal) was 54.5 nM, the TGI (UACC-257 melanoma) was 20200 nM and the TGI (UACC-62 melanoma) was 26000 nM. It also gave a GI50 (UO-31 renal) of 446 nM and a TGI (UO-31 renal) greater than 84800 nM.
